ChEMBL document CHEMBL4414594, “Hepatoprotective Tetrahydrobenzocyclooctabenzofuranone Lignans from Kadsura longipedunculata” (2019)
Calls of active or inactive are those of the source. The rule behind the calls is not given here.

tested on: HepG2; experiment: Hepatoprotective activity against APAP-induced cytotoxicity in human HepG2 cells assessed as cell survival rate at 10 uM incubated for 48 hrs by MTT assay relative to control; type: functional

Point of comparison: `COC(=O)c1cc(OC)c2c(c1-c1c(CO)cc(OC)c3c1OCO3)OCO2` [BICYCLOL], Activity 49%. Against it:
- COC1=C(OC)C(=O)[C@]23COc4c5c(cc(c42)[C@H](OC(=O)/C=C/c2ccccc2)[C@H](C)[C@@](C)(O)CC3=C1)OCO5 — lower, 37%
- COC1=C(OC)C(=O)[C@]23COc4c5c(cc(c42)[C@H](OC(=O)/C=C/c2ccccc2)[C@H](C)[C@](C)(O)CC3=C1)OCO5 — higher, 50.8%

For `COc1c(O)cc2c(c1OC)-c1c(cc(O)c(OC)c1OC)[C@H](OC(=O)c1ccccc1)[C@H](C)[C@H](C)C2`, the Activity was “inactive”.
With `COc1c(O[C@@H]2O[C@H](CO)[C@@H](O)[C@H](O)[C@H]2O)cc2c(c1O)-c1c(cc3c(c1OC)OCO3)[C@H](O)[C@H](C)[C@H](C)C2` the Activity was “inactive”.

tested on: Peritoneal macrophage; experiment: Antiinflammatory activity in C57BL/6J mouse peritoneal macrophages assessed as inhibition of LPS-induced nitric oxide production at 10 uM incubated for 24 hrs in presence of LPS by Griess test relative to control; type: functional

Point of comparison: `C/C=C(/C)C(=O)O[C@H]1c2cc(O)c(O[C@@H]3O[C@H](CO)[C@@H](O)[C@H](O)[C@H]3O)c3c2[C@@]2(CO3)C(=O)C(OC)=C(OC)C=C2C[C@@H](C)[C@H]1C`, inhibition at 10 µM 55.1%. Against it:
- C/C=C/c1ccc(O[C@H](C)[C@@H](O)c2cc(O)c(OC)c(OC)c2)c(OC)c1 — higher, 89.8%
- COC1=C(OC)C(=O)[C@]23COc4c5c(cc(c42)[C@H](OC(=O)/C=C/c2ccccc2)[C@H](C)[C@](C)(O)CC3=C1)OCO5 — higher, 74.9%
